Test results reported in PubChem BioAssay AID328 (DTP/NCI, 2004).
“And” between values parts separate entries of the source, which are not always exact repeats. Identical values can stand only once. Inconclusive results and toxic doses are left out.

Test system: BDF1 mice, P388 leukemia ip, median survival T/C
Test: NCI In Vivo Anticancer Drug Screen. Data for tumor model P388 Leukemia (intraperitoneal) in B6D2F1 (BDF1) mice
Conditions: endpoint: median survival time, higher = longer survival
Outline: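 Mice carrying the transplantable tumour receive compound or vehicle. Survival is followed in each arm, and the treated measure is divided by the vehicle measure.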

[1] = dose: 1.25 mg/kg/injection, schedule: Q01DX009 (ip), vehicle: saline
[2] = dose: 100.0 mg/kg/injection, schedule: Q01DX009 (ip), vehicle: Klucel (hydroxypropylcellulose) (HPC)
[3] = dose: 200.0 mg/kg/injection, schedule: Q01DX009 (ip), vehicle: Klucel (hydroxypropylcellulose) (HPC)
[4] = dose: 400.0 mg/kg/injection, schedule: Q01DX009 (ip), vehicle: Klucel (hydroxypropylcellulose) (HPC)
[5] = dose: 25.0 mg/kg/injection, schedule: Q01DX009 (ip), vehicle: saline
[6] = dose: 50.0 mg/kg/injection, schedule: Q01DX009 (ip), vehicle: saline
[7] = dose: 100.0 mg/kg/injection, schedule: Q01DX009 (ip), vehicle: saline
[8] = dose: 100.0 mg/kg/injection, schedule: Q04DX003 (ip), vehicle: saline
[9] = dose: 150.0 mg/kg/injection, schedule: Q04DX003 (ip), vehicle: saline
[10] = dose: 100.0 mg/kg/injection, schedule: Q04DX003 (ip), vehicle: saline with Tween-80
[11] = dose: 200.0 mg/kg/injection, schedule: Q04DX003 (ip), vehicle: saline with Tween-80
[12] = dose: 100.0 mg/kg/injection, schedule: Q01DX001 (ip), vehicle: Klucel (hydroxypropylcellulose) (HPC)
[13] = dose: 200.0 mg/kg/injection, schedule: Q01DX001 (ip), vehicle: Klucel (hydroxypropylcellulose) (HPC)
[14] = dose: 100.0 mg/kg/injection, schedule: Q01DX009 (ip), vehicle: saline with Tween-80
[15] = dose: 200.0 mg/kg/injection, schedule: Q01DX009 (ip), vehicle: saline with Tween-80
[16] = dose: 400.0 mg/kg/injection, schedule: Q01DX009 (ip), vehicle: saline with Tween-80
[17] = dose: 100.0 mg/kg/injection, schedule: Q04DX003 (ip), vehicle: Klucel (hydroxypropylcellulose) (HPC)
[18] = dose: 200.0 mg/kg/injection, schedule: Q04DX003 (ip), vehicle: Klucel (hydroxypropylcellulose) (HPC)
[19] = dose: 400.0 mg/kg/injection, schedule: Q04DX003 (ip), vehicle: Klucel (hydroxypropylcellulose) (HPC)
[20] = dose: 200.0 mg/kg/injection, schedule: Q04DX003 (ip), vehicle: saline
[21] = dose: 25.0 mg/kg/injection, schedule: Q01DX009 (ip), vehicle: saline with Tween-80
[22] = dose: 50.0 mg/kg/injection, schedule: Q01DX009 (ip), vehicle: saline with Tween-80
[23] = dose: 200.0 mg/kg/injection, schedule: Q01DX009 (ip), vehicle: saline

## CCC1CC(O)c2c(O)c3c(c(O)c2C1O)C(=O)c1cccc(O)c1C3=O (stereo not drawn) (tested in a mixture with another compound)
dose: 0.5 mg/kg/injection, schedule: Q01DX001 (ip), vehicle: saline
  T/C: 100 % of control
dose: 1.0 mg/kg/injection, schedule: Q01DX001 (ip), vehicle: saline
  T/C: 109 % of control
dose: 2.0 mg/kg/injection, schedule: Q01DX001 (ip), vehicle: saline
  T/C: 109 % of control

## CC(=O)Oc1cc2cnc3c4cc(OC(C)=O)c(OC(C)=O)cc4ccc3c2cc1OC(C)=O
dose: 0.62 mg/kg/injection, schedule: Q01DX009 (ip), vehicle: saline
  T/C: 106 % of control
[1]
  T/C: 94 % of control
dose: 2.5 mg/kg/injection, schedule: Q01DX009 (ip), vehicle: saline
  T/C: 97 % of control
dose: 5.0 mg/kg/injection, schedule: Q01DX009 (ip), vehicle: saline
  T/C: 86 % of control
dose: 20.0 mg/kg/injection, schedule: Q01DX009 (ip), vehicle: saline
  T/C: 109 % of control
dose: 80.0 mg/kg/injection, schedule: Q01DX009 (ip), vehicle: saline
  T/C: 86 % of control
dose: 120.0 mg/kg/injection, schedule: Q01DX009 (ip), vehicle: saline
  T/C: 90 % of control
dose: 240.0 mg/kg/injection, schedule: Q01DX009 (ip), vehicle: saline
  T/C: 95 % of control

## O=NN(CCCl)C(=O)Nc1c[nH]c2ccccc12
dose: 50.0 mg/kg/injection, schedule: Q01DX009 (ip), vehicle: Klucel (hydroxypropylcellulose) (HPC)
  T/C: 92 % of control
[2]
  T/C: 107 % of control
[3]
  T/C: 108 % of control
[4]
  T/C: 117 % of control

## C(CC1CO1)C1CO1 (stereo not drawn)
dose: 22.0 mg/kg/injection, schedule: Q01DX009 (ip), vehicle: saline
  T/C: 119 % of control and 120 % of control
[5]
  T/C: 157 % of control
dose: 30.0 mg/kg/injection, schedule: Q04DX003 (ip), vehicle: saline
  T/C: 113 % of control
dose: 33.0 mg/kg/injection, schedule: Q01DX009 (ip), vehicle: saline
  T/C: 150 % of control
[6]
  T/C: 161 % of control and 166 % of control and 176 % of control
dose: 67.0 mg/kg/injection, schedule: Q04DX003 (ip), vehicle: saline
  T/C: 172 % of control and 176 % of control
dose: 75.0 mg/kg/injection, schedule: Q01DX009 (ip), vehicle: saline
  T/C: 175 % of control and 200 % of control
[7]
  T/C: 215 % of control
[8]
  T/C: 241 % of control and 200 % of control
[9]
  T/C: 240 % of control

## O=C1CC(c2ccc(OCN(CCCl)CCCl)cc2)CC(=O)C1CN(CCCl)CCCl (stereo not drawn)
dose: 0.5 mg/kg/injection, schedule: Q01DX009 (ip), vehicle: Klucel (hydroxypropylcellulose) (HPC)
  T/C: 124 % of control
dose: 4.0 mg/kg/injection, schedule: Q01DX009 (ip), vehicle: Klucel (hydroxypropylcellulose) (HPC)
  T/C: 160 % of control

## NC(=O)C(CC(=O)OCc1ccccc1)NC(=O)OCc1ccccc1 (stereo not drawn)
[10]
  T/C: 100 % of control
[11]
  T/C: 95 % of control
dose: 400.0 mg/kg/injection, schedule: Q04DX003 (ip), vehicle: saline with Tween-80
  T/C: 104 % of control

## CC(C)Oc1ccc(Nc2ccccc2)cc1
[12]
  T/C: 100 % of control
[13]
  T/C: 100 % of control
dose: 400.0 mg/kg/injection, schedule: Q01DX001 (ip), vehicle: Klucel (hydroxypropylcellulose) (HPC)
  T/C: 91 % of control

## CC(=O)CC(=O)OCc1ccccc1
[14]
  T/C: 100 % of control
[15]
  T/C: 118 % of control
[16]
  T/C: 100 % of control

## CC(=O)c1ccccc1I
[2]
  T/C: 100 % of control
[17]
  T/C: 104 % of control
[3]
  T/C: 95 % of control
[18]
  T/C: 100 % of control
[4]
  T/C: 100 % of control
[19]
  T/C: 95 % of control

## Nc1ncnc2c1cnn2CCCl
[10]
  T/C: 122 % of control
[11]
  T/C: 118 % of control

## Cc1c[n+]([O-])ccc1[N+](=O)[O-]
[5]
  T/C: 100 % of control
[6]
  T/C: 104 % of control
dose: 50.0 mg/kg/injection, schedule: Q04DX003 (ip), vehicle: saline
  T/C: 100 % of control
[8]
  T/C: 90 % of control and 95 % of control
[9]
  T/C: 100 % of control
[20]
  T/C: 86 % of control

## CCOC(=O)c1cc2ccccc2n1-c1ccccc1
[16]
  T/C: 103 % of control

## CC1(C)O[C@]2(C)CC[C@@H]1[C@H](O)[C@@H]2N1CCCC1
dose: 50.0 mg/kg/injection, schedule: Q01DX005 (ip), vehicle: saline with Tween-80
  T/C: 111 % of control
dose: 100.0 mg/kg/injection, schedule: Q01DX005 (ip), vehicle: saline with Tween-80
  T/C: 104 % of control

## Cc1c[se]c(=S)s1
[21]
  T/C: 101 % of control
[22]
  T/C: 96 % of control
[14]
  T/C: 98 % of control

## O=C(O)C1(NO)CCCC1
[7]
  T/C: 95 % of control
[23]
  T/C: 104 % of control

## CCOC(=O)C(N)C[S][Sn]([CH3])([CH3])[Cl] (stereo not drawn)
dose: 6.25 mg/kg/injection, schedule: Q01DX009 (ip), vehicle: saline
  T/C: 122 % of control
dose: 12.5 mg/kg/injection, schedule: Q01DX009 (ip), vehicle: saline
  T/C: 124 % of control

## Cc1ccc(NC(=O)c2ccc(Cl)cc2)c(Br)c1
dose: 100.0 mg/kg/injection, schedule: Q01DX001 (ip), vehicle: saline with Tween-80
  T/C: 100 % of control
dose: 200.0 mg/kg/injection, schedule: Q01DX001 (ip), vehicle: saline with Tween-80
  T/C: 109 % of control
dose: 400.0 mg/kg/injection, schedule: Q01DX001 (ip), vehicle: saline with Tween-80
  T/C: 100 % of control

## Nc1ccc2c(-c3ccccc3)cc(NCCCN3CCOCC3)nc2n1
[8]
  T/C: 104 % of control
[20]
  T/C: 100 % of control

## O=C(Nc1ccccc1F)C12CC3CC(CC(C3)C1)C2
[22]
  T/C: 92 % of control
[14]
  T/C: 96 % of control
[15]
  T/C: 96 % of control

## CC=C=C(C)CN
[6]
  T/C: 96 % of control
[7]
  T/C: 96 % of control
[23]
  T/C: 92 % of control

## CC(C(=O)c1cc(O)c(O)cc1C(O)(C(F)(F)F)C(F)(F)F)C(O)(C(F)(F)F)C(F)(F)F (stereo not drawn)
[14]
  T/C: 100 % of control
[15]
  T/C: 100 % of control
[16]
  T/C: 95 % of control

## c1ccc(CSc2ncnc3nc[nH]c23)nc1
dose: 50.0 mg/kg/injection, schedule: Q01DX009 (ip), vehicle: saline sonified
  T/C: 100 % of control
dose: 50.0 mg/kg/injection, schedule: Q04DX003 (ip), vehicle: saline with Tween-80
  T/C: 105 % of control
dose: 100.0 mg/kg/injection, schedule: Q01DX009 (ip), vehicle: saline sonified
  T/C: 111 % of control
[10]
  T/C: 100 % of control
[11]
  T/C: 100 % of control

## c1ccc(N=N/C(=N\Nc2ccccc2)SCCS/C(N=Nc2ccccc2)=N/Nc2ccccc2)cc1
[21]
  T/C: 99 % of control
[22]
  T/C: 99 % of control
[14]
  T/C: 121 % of control

## CC(=O)C1COC(O)C1C (stereo not drawn)
dose: 0.63 mg/kg/injection, schedule: Q01DX010 (ip), vehicle: saline
  T/C: 95 % of control
[1]
  T/C: 115 % of control and 103 % of control
dose: 1.25 mg/kg/injection, schedule: Q01DX010 (ip), vehicle: saline
  T/C: 100 % of control
dose: 2.5 mg/kg/injection, schedule: Q01DX010 (ip), vehicle: saline
  T/C: 116 % of control

## CC(C)NC(=O)c1ccccc1S(=O)c1ccccc1C(=O)NC(C)C
[22]
  T/C: 104 % of control
[14]
  T/C: 100 % of control
[15]
  T/C: 108 % of control

## CC(C)(C)OC(=O)NNC(c1ccccc1)c1ccccc1
dose: 50.0 mg/kg/injection, schedule: Q01DX001 (ip), vehicle: Klucel (hydroxypropylcellulose) (HPC)
  T/C: 91 % of control
dose: 50.0 mg/kg/injection, schedule: Q01DX009 (ip), vehicle: other
  T/C: 105 % of control
[12]
  T/C: 91 % of control
dose: 100.0 mg/kg/injection, schedule: Q01DX009 (ip), vehicle: other
  T/C: 110 % of control
[17]
  T/C: 105 % of control
[13]
  T/C: 95 % of control
dose: 200.0 mg/kg/injection, schedule: Q01DX009 (ip), vehicle: other
  T/C: 100 % of control
[18]
  T/C: 110 % of control
[19]
  T/C: 105 % of control
